Calls of active or inactive are those of the source. No cut-off for these calls is given here.
Legend:
[1] = target: Tyrosine-protein kinase receptor UFO (Homo sapiens) (UniProt P30530); test: Inhibition of recombinant His-tagged human Axl (473 to end residues) cytoplasmic domain expressed in insect system using poly (Glu-Ala-Tyr) peptide as substrate after 1.5 hrs by ELISA
[2] = target: Tyrosine-protein kinase ABL1 (Homo sapiens) (UniProt P00519); test: Binding affinity to human wild type ABL1 (229 to 512 residues) expressed in mammalian expression system assessed as fraction of unbound kinase to substrate at 0.1 uM after 1 hr by KinomeScan assay
[3] = target: Tyrosine-protein kinase ABL1 (Homo sapiens) (UniProt P00519); test: Binding affinity to human wild type ABL1 (229 to 512 residues) expressed in mammalian expression system assessed as fraction of unbound kinase to substrate at 1 uM after 1 hr by KinomeScan assay
[4] = target: Tyrosine-protein kinase ABL1 (Homo sapiens) (UniProt P00519); test: Binding affinity to human wild type ABL1 (229 to 512 residues) expressed in mammalian expression system assessed as fraction of unbound kinase to substrate at 10 uM after 1 hr by KinomeScan assay
[5] = target: T1, Aurora kinase A (Homo sapiens) (UniProt O14965); test: Binding affinity to wild-type human partial length AURKA (E122 to K401 residues) expressed in mammalian expression system assessed as fraction of unbound kinase to substrate at 1 uM after 1 hr by KinomeScan assay
T1 sequence (whole entry): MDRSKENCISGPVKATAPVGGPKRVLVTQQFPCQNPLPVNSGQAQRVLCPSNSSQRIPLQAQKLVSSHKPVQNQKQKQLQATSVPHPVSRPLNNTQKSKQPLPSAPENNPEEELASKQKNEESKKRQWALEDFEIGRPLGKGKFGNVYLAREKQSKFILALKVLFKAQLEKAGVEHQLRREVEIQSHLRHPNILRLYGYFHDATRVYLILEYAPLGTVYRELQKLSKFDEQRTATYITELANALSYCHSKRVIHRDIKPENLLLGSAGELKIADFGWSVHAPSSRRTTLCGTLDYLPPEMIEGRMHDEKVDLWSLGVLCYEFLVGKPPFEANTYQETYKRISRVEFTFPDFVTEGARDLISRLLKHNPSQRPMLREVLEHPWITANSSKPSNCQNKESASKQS

[6] = target: T1, Aurora kinase A (Homo sapiens); test: Binding affinity to wild-type human partial length AURKA (E122 to K401 residues) expressed in mammalian expression system assessed as fraction of unbound kinase to substrate at 10 uM after 1 hr by KinomeScan assay
[7] = target: Serine/threonine-protein kinase B-raf (Homo sapiens) (UniProt P15056); test: Binding affinity to wild-type human partial length BRAF (S429 to E741 residues) expressed in mammalian expression system assessed as fraction of unbound kinase to substrate at 0.1 uM after 1 hr by KinomeScan assay
[8] = target: Cyclin-dependent kinase 2 (Homo sapiens) (UniProt P24941); test: Binding affinity to wild-type human full length CDK2 (M1 to L298 residues) expressed in bacterial expression system assessed as fraction of unbound kinase to substrate at 0.1 uM after 1 hr by KinomeScan assay
[9] = target: Cyclin-dependent kinase 2 (Homo sapiens) (UniProt P24941); test: Binding affinity to wild-type human full length CDK2 (M1 to L298 residues) expressed in bacterial expression system assessed as fraction of unbound kinase to substrate at 10 uM after 1 hr by KinomeScan assay
[10] = target: Fibroblast growth factor receptor 1 (Homo sapiens) (UniProt P11362); test: Binding affinity to wild-type human partial length FGFR1 (P357 to V669 residues) expressed in bacterial expression system assessed as fraction of unbound kinase to substrate at 0.1 uM after 1 hr by KinomeScan assay
[11] = target: Fibroblast growth factor receptor 1 (Homo sapiens) (UniProt P11362); test: Binding affinity to wild-type human partial length FGFR1 (P357 to V669 residues) expressed in bacterial expression system assessed as fraction of unbound kinase to substrate at 1 uM after 1 hr by KinomeScan assay
[12] = target: Tyrosine-protein kinase receptor UFO (Homo sapiens) (UniProt P30530); test: Binding affinity to human AXL (R497 to Y821 residues) expressed in bacterial expression system assessed as fraction of unbound kinase to substrate at 0.1 uM after 1 hr by KinomeScan assay
[13] = target: Tyrosine-protein kinase receptor UFO (Homo sapiens) (UniProt P30530); test: Binding affinity to human AXL (R497 to Y821 residues) expressed in bacterial expression system assessed as fraction of unbound kinase to substrate at 10 uM after 1 hr by KinomeScan assay
[14] = target: T2, Tyrosine-protein kinase Mer (Homo sapiens) (UniProt Q12866); test: Binding affinity to wild-type partial length human MER (R557 to L884 residues) expressed in bacterial expression system assessed as fraction of unbound kinase to substrate at 0.1 uM after 1 hr by KinomeScan assay
T2 sequence (whole entry): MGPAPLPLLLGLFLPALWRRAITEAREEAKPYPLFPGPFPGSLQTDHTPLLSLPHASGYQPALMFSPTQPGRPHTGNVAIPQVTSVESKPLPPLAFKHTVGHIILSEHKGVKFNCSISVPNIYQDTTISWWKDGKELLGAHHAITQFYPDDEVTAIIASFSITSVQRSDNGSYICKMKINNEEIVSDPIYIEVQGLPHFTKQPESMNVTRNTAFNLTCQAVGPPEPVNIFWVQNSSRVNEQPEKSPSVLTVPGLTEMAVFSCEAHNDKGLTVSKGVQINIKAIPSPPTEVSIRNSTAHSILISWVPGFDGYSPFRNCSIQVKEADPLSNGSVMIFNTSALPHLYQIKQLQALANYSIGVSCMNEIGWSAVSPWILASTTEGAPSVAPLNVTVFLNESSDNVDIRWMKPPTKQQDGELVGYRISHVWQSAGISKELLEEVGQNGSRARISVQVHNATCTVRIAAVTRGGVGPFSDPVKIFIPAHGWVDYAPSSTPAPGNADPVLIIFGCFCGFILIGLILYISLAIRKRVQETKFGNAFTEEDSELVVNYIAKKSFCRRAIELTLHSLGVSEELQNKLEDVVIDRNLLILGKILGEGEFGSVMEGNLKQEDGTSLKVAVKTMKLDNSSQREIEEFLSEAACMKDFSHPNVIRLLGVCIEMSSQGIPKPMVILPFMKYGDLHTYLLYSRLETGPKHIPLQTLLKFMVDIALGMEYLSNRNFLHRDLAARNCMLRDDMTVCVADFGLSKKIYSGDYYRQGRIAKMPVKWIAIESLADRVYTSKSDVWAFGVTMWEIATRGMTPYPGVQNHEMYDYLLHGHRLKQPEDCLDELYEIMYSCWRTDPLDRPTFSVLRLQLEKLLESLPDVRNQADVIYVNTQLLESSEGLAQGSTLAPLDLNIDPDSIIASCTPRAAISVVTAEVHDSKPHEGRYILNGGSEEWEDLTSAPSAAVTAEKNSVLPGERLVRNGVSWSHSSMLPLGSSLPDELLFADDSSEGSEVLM

[15] = target: T2, Tyrosine-protein kinase Mer (Homo sapiens); test: Binding affinity to wild-type partial length human MER (R557 to L884 residues) expressed in bacterial expression system assessed as fraction of unbound kinase to substrate at 10 uM after 1 hr by KinomeScan assay
Homo sapiens = species on record: Homo sapiens; test: Antiproliferative activity against human MGHU3 cells after 72 hrs by CellTiter-Glo assay; type: functional, cell-based

Tyrosine-protein kinase receptor UFO (Homo sapiens), sequence (P30530 whole entry, the tested form may be a part): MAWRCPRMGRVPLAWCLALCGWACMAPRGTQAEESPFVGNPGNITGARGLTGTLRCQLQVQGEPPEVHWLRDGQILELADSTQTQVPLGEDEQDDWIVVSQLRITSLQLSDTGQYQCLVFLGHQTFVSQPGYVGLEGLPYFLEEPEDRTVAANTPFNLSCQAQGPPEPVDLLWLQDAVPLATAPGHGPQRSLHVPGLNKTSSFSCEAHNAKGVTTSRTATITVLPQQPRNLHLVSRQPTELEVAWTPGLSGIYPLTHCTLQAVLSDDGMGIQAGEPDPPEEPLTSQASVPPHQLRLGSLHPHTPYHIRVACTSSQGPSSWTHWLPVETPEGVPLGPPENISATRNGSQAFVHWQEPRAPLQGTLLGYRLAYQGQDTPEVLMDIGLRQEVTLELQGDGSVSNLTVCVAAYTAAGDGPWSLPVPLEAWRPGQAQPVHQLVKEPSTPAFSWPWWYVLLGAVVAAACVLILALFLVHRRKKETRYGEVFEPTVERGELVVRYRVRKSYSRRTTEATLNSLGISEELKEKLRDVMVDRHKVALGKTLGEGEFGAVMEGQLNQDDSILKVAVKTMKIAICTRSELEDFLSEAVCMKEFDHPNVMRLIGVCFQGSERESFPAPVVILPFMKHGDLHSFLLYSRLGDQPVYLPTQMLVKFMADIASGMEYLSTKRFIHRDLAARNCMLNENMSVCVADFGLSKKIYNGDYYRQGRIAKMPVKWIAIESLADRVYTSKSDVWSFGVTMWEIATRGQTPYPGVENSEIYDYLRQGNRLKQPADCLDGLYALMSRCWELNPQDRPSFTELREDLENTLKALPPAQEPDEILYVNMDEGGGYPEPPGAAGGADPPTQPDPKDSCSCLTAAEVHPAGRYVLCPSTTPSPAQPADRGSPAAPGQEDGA
Tyrosine-protein kinase ABL1 (Homo sapiens), sequence (P00519 whole entry, the tested form may be a part): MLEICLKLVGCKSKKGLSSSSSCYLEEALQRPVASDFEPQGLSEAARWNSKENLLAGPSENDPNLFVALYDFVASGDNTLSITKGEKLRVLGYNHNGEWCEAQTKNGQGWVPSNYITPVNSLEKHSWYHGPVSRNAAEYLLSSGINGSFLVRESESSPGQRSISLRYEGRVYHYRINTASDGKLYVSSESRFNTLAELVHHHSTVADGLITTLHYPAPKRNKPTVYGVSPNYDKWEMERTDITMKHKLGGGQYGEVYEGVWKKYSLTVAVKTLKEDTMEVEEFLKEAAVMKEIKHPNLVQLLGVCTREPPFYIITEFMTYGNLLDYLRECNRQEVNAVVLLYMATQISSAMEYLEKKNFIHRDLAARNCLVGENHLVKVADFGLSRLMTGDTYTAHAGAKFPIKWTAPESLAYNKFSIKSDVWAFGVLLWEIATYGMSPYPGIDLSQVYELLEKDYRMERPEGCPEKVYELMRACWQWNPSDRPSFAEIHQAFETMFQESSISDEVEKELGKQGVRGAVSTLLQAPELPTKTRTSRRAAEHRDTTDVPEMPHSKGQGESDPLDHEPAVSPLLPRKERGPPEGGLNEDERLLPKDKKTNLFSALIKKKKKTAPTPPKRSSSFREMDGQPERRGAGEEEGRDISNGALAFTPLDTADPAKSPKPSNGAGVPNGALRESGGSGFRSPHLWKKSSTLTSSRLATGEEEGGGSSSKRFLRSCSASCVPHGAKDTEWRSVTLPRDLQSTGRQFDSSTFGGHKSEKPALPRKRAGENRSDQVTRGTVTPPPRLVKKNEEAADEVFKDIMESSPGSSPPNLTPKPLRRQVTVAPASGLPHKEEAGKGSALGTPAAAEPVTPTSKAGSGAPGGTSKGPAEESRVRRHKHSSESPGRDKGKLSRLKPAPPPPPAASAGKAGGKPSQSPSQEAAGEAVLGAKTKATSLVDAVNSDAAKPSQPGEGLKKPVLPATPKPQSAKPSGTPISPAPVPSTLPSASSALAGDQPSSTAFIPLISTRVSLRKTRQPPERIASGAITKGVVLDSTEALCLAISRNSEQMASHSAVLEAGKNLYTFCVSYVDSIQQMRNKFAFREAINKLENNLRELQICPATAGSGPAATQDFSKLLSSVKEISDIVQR
Fibroblast growth factor receptor 1 (Homo sapiens), sequence (P11362 22-822 limits assumed): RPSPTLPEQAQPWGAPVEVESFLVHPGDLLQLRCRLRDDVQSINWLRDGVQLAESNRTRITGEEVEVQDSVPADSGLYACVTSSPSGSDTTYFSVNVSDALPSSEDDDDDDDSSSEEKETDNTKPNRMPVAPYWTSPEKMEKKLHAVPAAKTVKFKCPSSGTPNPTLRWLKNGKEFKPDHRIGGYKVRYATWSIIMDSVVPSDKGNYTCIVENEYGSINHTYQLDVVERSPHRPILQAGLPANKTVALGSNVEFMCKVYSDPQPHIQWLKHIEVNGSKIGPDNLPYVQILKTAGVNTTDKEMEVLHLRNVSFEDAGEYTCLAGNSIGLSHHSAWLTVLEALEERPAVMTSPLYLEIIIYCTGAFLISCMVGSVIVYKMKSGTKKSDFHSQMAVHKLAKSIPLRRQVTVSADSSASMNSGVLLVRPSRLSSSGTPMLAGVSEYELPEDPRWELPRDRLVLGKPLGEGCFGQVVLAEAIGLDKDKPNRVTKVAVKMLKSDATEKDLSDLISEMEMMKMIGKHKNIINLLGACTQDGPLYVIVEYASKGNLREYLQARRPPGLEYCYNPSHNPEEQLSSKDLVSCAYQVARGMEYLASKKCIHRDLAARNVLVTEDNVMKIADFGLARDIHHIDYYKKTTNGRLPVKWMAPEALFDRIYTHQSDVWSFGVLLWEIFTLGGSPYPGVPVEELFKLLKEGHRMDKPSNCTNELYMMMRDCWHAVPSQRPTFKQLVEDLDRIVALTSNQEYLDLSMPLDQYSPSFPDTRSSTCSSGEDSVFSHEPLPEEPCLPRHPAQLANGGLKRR
Serine/threonine-protein kinase B-raf (Homo sapiens), sequence (P15056 whole entry, the tested form may be a part): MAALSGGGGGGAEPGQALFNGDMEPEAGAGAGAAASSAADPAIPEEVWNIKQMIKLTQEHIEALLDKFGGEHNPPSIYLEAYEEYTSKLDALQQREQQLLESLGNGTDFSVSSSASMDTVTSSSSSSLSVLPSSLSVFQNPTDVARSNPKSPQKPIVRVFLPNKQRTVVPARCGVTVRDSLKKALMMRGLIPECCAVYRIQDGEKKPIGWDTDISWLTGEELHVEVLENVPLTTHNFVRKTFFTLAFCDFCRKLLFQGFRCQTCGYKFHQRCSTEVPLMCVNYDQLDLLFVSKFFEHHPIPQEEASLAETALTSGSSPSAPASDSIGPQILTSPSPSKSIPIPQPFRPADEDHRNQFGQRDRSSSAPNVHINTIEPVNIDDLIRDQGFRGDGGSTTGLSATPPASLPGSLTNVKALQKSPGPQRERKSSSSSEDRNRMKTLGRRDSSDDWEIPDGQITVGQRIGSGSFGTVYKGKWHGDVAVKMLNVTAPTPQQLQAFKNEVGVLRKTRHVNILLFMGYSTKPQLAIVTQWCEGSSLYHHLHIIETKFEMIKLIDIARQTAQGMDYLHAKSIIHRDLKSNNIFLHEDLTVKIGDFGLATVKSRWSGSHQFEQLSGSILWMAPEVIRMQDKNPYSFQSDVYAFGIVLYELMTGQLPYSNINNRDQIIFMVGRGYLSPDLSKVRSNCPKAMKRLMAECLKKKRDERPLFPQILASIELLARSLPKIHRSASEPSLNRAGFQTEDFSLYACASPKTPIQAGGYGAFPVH

In the case of `Cc1cnc2[nH]cnc2c1Oc1ccc(NC(=O)c2cccn(-c3ccc(F)cc3)c2=O)cc1F`, the inhibition [1] is reported as “inactive”, the Activity [2] is reported as 1% and the Activity [3] is reported as 1%. The Activity [4] was 3%, the Activity [5] was 6% and the Activity [6] was 41%. It also gave an Activity [7] of 0%, an Activity [8] of 0% and an Activity [9] of 3%. For the same compound, the Activity [10] was 8%, the Activity [11] was 2% and the Activity [12] was 22%. The Activity [13] was 90.1%, the Activity [14] was 17% and the Activity [15] was 99.1%. The Activity (Homo sapiens) was “inactive”.
With `CC(C)c1nc2c(Oc3ccc(NC(=O)c4cccn(-c5ccc(F)cc5)c4=O)cc3F)ccnc2[nH]1` the inhibition [1] was “inactive”, the Activity [2] was 1% and the Activity [3] was 3%. It also gave an Activity [4] of 17%, an Activity [5] of 2% and an Activity [6] of 12%. The Activity [7] was 0%, the Activity [8] was 41% and the Activity [9] was 99.7%. The Activity [10] was 7%, the Activity [11] was 1% and the Activity [12] was 61%. For the same compound, the Activity [13] was 89%, the Activity [14] was 92.3% and the Activity [15] was 99.1%. For the same compound, the Activity (Homo sapiens) was “inactive”.
`O=C(Nc1ccc(Oc2ccnc3[nH]cnc23)c(F)c1)c1cccn(-c2ccc(F)cc2)c1=O` was tested, and the inhibition [1] was “Active”, the Activity [2] was 2% and the Activity [3] was 13%. For the same compound, the Activity [4] was 34%, the Activity [5] was 2% and the Activity [6] was 13%. For the same compound, the Activity [7] was 9%, the Activity [8] was 0% and the Activity [9] was 48%. It also gave an Activity [10] of 1%, an Activity [11] of 2% and an Activity [12] of 78%. For the same compound, the Activity [13] was 93.3%, the Activity [14] was 87% and the Activity [15] was 99.6%. For the same compound, the Activity (Homo sapiens) was “inactive”.
With `O=C(Nc1ccc(Oc2c(Br)cnc3[nH]cnc23)c(F)c1)c1cccn(-c2ccc(F)cc2)c1=O` the inhibition [1] was “inactive”, the Activity [2] was 0% and the Activity [3] was 0%. It also gave an Activity [4] of 0%, an Activity [5] of 9% and an Activity [6] of 45%. For the same compound, the Activity [7] was 0%, the Activity [8] was 0% and the Activity [9] was 32%. For the same compound, the Activity [10] was 7%, the Activity [11] was 1% and the Activity [12] was 4%. It also gave an Activity [13] of 90.4%, an Activity [14] of 4% and an Activity [15] of 98.2%.

Reference: ChEMBL document CHEMBL4261615, “Design, synthesis, biological evaluation and cellular imaging of imidazo[4,5-b]pyridine derivatives as potent and selective TAM inhibitors” (Bioorg Med Chem, 2018)
